Test results from publication PMC11217349, “Development of Nurr1 agonists from amodiaquine by scaffold hopping and fragment growing” (Communications Chemistry, 2024).
Values joined by “and” are separate entries in the source; they are usually repeats but may differ in a detail not shown here. Identical values can stand only once.

How the values were obtained:
[1] = target: T1, PPARα (Homo sapiens, UniProt Q07869); experiment: Gal4-hybrid selectivity assay PPARα; assay type: cell-based; details: 3 µM; reference agonist = 100%
T1 construct: chimeric receptors composed of the Gal4-DBD and the hinge region and LBD; expressed in transfected cells; host or cells: HEK293T
T1 sequence (Q07869 239-466 limits assumed): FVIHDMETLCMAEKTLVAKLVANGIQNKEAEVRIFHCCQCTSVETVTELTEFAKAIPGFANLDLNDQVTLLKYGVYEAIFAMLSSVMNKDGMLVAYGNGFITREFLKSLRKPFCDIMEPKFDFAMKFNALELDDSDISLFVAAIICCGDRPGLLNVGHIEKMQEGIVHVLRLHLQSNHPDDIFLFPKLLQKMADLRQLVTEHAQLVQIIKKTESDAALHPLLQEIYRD
Description: (§1) Nurr1 modulation was determined in a Gal4 hybrid reporter gene assay in HEK293T cells (German Collection of Microorganisms and Cell Culture GmbH, DSMZ) using pFR-Luc (Stratagene, La Jolla, CA, USA; reporter), pRL-SV40 (Promega, Madison, WI, USA; internal control) and pFA-CMV-hNurr1-LBD[14], coding for the hinge region and ligand binding domain of the canonical isoform of human Nurr1. […] After 24 h, the medium was changed to Opti-MEM without supplements, and cells were transiently transfected using Lipofectamine LTX reagent (Invitrogen, Carlsbad, CA, USA) according to the manufacturer’s protocol. Five hours after transfection, cells were incubated with the test compounds in Opti-MEM supplemented with penicillin (100 U/mL), streptomycin (100 μg/mL), and 0.1% DMSO for 16 h before luciferase activity was measured using the Dual-Glo Luciferase Assay System (Promega) according to the manufacturer’s protocol on a Tecan Spark luminometer (Tecan Deutschland GmbH, Crailsheim, Germany). Firefly luminescence was divided by Renilla luminescence and multiplied by 1000 resulting in relative light units (RLU) to normalize for transfection efficiency and cell growth. Fold activation was obtained by dividing the mean RLU of the test compound by the mean RLU of the untreated control. All samples were tested in at least three biologically independent experiments in duplicates. […]

[2] = target: T2, PPARδ (Homo sapiens, UniProt Q03181); experiment: Gal4-hybrid selectivity assay PPARδ; assay type: cell-based; details: 3 µM; reference agonist = 100%
T2 construct: chimeric receptors composed of the Gal4-DBD and the hinge region and LBD; expressed in transfected cells; host or cells: HEK293T
T2 sequence (Q03181 211-439 limits assumed): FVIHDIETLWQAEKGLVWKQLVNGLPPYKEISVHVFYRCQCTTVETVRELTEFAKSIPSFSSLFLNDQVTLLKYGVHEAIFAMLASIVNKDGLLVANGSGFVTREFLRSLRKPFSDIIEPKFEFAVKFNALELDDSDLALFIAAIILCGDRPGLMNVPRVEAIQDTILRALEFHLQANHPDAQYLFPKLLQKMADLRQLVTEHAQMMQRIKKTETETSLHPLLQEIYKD
Description: as §1

- % rel. act. PPARα [1]: 1.669% and 2.630% and 1.870%
- % rel. act. PPARδ [2]: 4.502% and 5.181% and 2.926%
SMILES: Cc1nc2c(Cl)cccn2c1NC(=O)c1ccc(-c2ccc(N(C)C)cc2)o1 [Compound 36, N-(8-Chloro-2-methylimidazo[1,2-a]pyridin-3-yl)-5-(4-(dimethylamino)phenyl)furan-2-carboxamide]
